Our source for the IC50 values is US20230167127A1, “COMPOUNDS AND THEIR USE IN THE TREATMENT OF BACTERIAL INFECTION” (Hoffmann-La Roche Inc., priority 2020, published 2023).

Structures are written as SMILES.

For this experiment, the system named is Escherichia coli ATCC 25922. Kind of experiment: 50% growth inhibitory concentration (IC50) determination, Iso-Sensitest broth dilution. Format: cell-based. To be noted: Escherichia coli, ATCC25922, 16 h, strain Escherichia coli ATCC 25922; 10-point broth dilution, optical density at 600 nm over 16 h; read-out: Escherichia coli growth inhibition IC50. How it is done:
50% Growth Inhibitory Concentration (IC50) Determination
The in vitro antimicrobial activity of the compounds was determined according to the following procedure:
The assay used a 10-point Iso-Sensitest broth dilution method to measure quantitatively the in vitro
ATCC 25922, Acinetobacter baumannii ATCC 17961, Klebsiella pneumoniae ATCC 43816 and Staphylococcus aureus ATCC 29213.
Stock compounds in DMSO were serially twofold diluted (e.g. range from 50 to 0.097 μM final concentration) in 384 wells microtiter plates and inoculated with 50 μL of the bacterial suspension in Iso-
ell of 50 μL/well. Microtiter plates were incubated at 35±2° C.
Bacterial cell growth was determined with the measurement of optical density at λ=600 nm each 20 minutes over a time course of 16 h.
Growth inhibition was calculated during the logarithmic growth of the bacterial cells with
Table 1 provides the 50% growth inhibitory concentrations (IC50) in micromoles per liter of the compounds of present invention obtained against the strain Escherichia coli ATCC 25922.

As for `N#Cc1cccc2c1C(N)C(CNCCC1CN(c3ccc4c(n3)NC(=O)CS4)C(=O)O1)C2` (racemic) [Example 157, rac-2,3-trans-3-amino-2-[[2-[2-oxo-3-(3-oxo-4H-pyrido[3,2-b][1,4]thiazin-6-yl)-1,3-oxazolidin-5-yl]ethylamino]methyl]-2,3-dihydro-1H-indene-4-carbonitrile], the IC50 is below 97.7 nM.

For the compound `N#Cc1cccc2c1CC(CN1CCC3(CC1)CN(c1ccc4c(n1)NC(=O)CO4)C(=O)O3)C2` (stereo not shown) [Example 28, 2-[ [2-oxo-3-(3-oxo-4H-pyrido[3,2-b] [1,4]oxazin-6-yl)-1-oxa-3,8-diazaspiro[4.5]decan-8-yl]methyl]-2,3-dihydro-1H-indene-4-carbonitrile], the IC50 was below 97.7 nM.

On to `CCn1cc(C(=O)O)c(=O)c2ccc3c(c21)CC(CNCCC1CN(c2ccc4c(n2)NC(=O)CO4)C(=O)O1)C3` (stereo not shown) [Example 275, 1-Ethyl-4-oxo-8-[[2-[2-oxo-3-(3-oxo-4H-pyrido[3,2-b][1,4]oxazin-6-yl)-1,3-oxazolidin-5-yl]ethylamino]methyl]-8,9-dihydro-7H-cyclopenta[h]quinoline-3-carboxylic acid], for which the IC50 was determined as 592 nM.

Regarding `Cc1ncc(F)c2c1CC(NCCCC1CN(c3ccc4c(n3)NC(=O)CO4)C(=O)O1)C2` (stereo not shown) [Example 78, 6-[5-[3-[(4-fluoro-1-methyl-6,7-dihydro-5H-cyclopenta[c]pyridin-6-yl)amino]propyl]-2-oxo-1,3-oxazolidin-3-yl]-4H-pyrido[3,2-b][1,4]oxazin-3-one], the IC50 came out at 155 nM.

Turning to `NC1c2cccc(Cl)c2CC1CNCCC1CN(c2ncc3c(n2)NC(=O)CO3)C(=O)O1` (racemic) [Example 290, 2-[5-[2-[(rac-1,2-trans-1-amino-4-chloro-2,3-dihydro-1H-inden-2-yl)methylamino]ethyl]-2-oxo-1,3-oxazolidin-3-yl]-8H-pyrimido[5,4-b][1,4]oxazin-7-one], the IC50 was 261 nM.

For `O=C1COc2ncc(N3CC(CCNCC4Cc5cc(OCC(=O)NC6CC6)cc(F)c5C4)OC3=O)nc2N1` (stereo not shown) [Example 346, N-cyclopropyl-2-[[7-fluoro-2-[[2-[2-oxo-3-(3-oxo-4H-pyrazino[2,3-b][1,4]oxazin-6-yl)-1,3-oxazolidm-5-yl]ethylamino]methyl]-2,3-dihydro-1H-inden-5-yl]oxy]acetamide; formic acid], the IC50 is 311 nM.

As to `CC(=O)NCCOc1ccc2c(c1C#N)CC(CNCCC1CN(c3ccc4c(n3)NC(=O)CO4)C(=O)O1)C2` (stereo not shown) [Example 56, N-[2-[[4-cyano-2-[[2-[2-oxo-3-(3-oxo-4H-pyrido[3,2-b][1,4]oxazin-6-yl)-1,3-oxazolidin-5-yl]ethylamino]methyl]-2,3-dihydro-1H-inden-5-yl]oxy]ethyl]acetamide], the IC50 was 941 nM.

In the case of `N#Cc1cccc2c1C(N)C(CNCCC1CN(c3ccc4c(n3)NC(=O)CO4)C(=O)O1)C2` (racemic) [Example 156, rac-2,3-trans-3-amino-2-[[2-[2-oxo-3-(3-oxo-4H-pyrido[3,2-b][1,4]oxazin-6-yl)-1,3-oxazolidin-5-yl]ethylamino]methyl]-2,3-dihydro-1H-indene-4-carbonitrile], the IC50 is below 97.7 nM.

With `CNC(=O)C(N)COc1cc(F)c2c(c1)CC(CNCCC1CN(c3ccc4c(n3)NC(=O)CO4)C(=O)O1)C2` (stereo not shown) [Example 255, 2-Amino-3-[[7-fluoro-2-[[2-[2-oxo-3-(3-oxo-4H-pyrido[3,2-b][1,4]oxazin-6-yl)-1,3-oxazolidin-5-yl]ethylamino]methyl]-2,3-dihydro-1H-inden-5-yl]oxy]-N-methylpropanamide; formic acid], the IC50 stood at 180 nM.

As to `NC(=O)COc1cc(F)c2c(c1)CC(CNCCC1CN(c3cnc4c(n3)NC(=O)CO4)C(=O)O1)C2` (stereo not shown) [Example 305, 2-[[7-fluoro-2-[[2-[2-oxo-3-(3-oxo-4H-pyrazino[2,3-b][1,4]oxazin-6-yl)-1,3-oxazolidin-5-yl]ethylamino]methyl]-2,3-dihydro-1H-inden-5-yl]oxy]acetamide], the IC50 is below 97.7 nM.
